Results published in US20250152550A1, “LYMPH-TARGETING FORMULATIONS” (Monash University, priority 2021, published 2025).

Columns and labels:
[1] = assay type: in vivo; conditions: intestinal and IV groups; below the limit of quantitation
Protocol: Systemic availability was determined in lymph-intact anaesthetised rats with cannulas inserted into the carotid artery and duodenum for blood collection and formulation infusion, respectively. To enable the calculation of absolute bioavailability an additional group was administered orlistat intravenously via a jugular vein cannula, and blood samples collected from a carotid artery cannula over time.
To enable determination of systemic availability following intestinal dosing of selected formulations (i.e. the 40 mg oleic acid and olive oil formulations containing 8 mg/kg orlistat) a separate group of lymph-intact animals (i.e. non-lymph cannulated) were cannulated at the duodenum and carotid artery to enable formulation administration and blood collection, respectively. After surgery the rats were hydrated via intraduodenal infusion of 2.8 ml/h normal saline for at least 30 min, followed by intraduodenal infusion of the formulations at 2.8 ml/h for 2 h. […]
For the plasma pharmacokinetic studies, the absolute bioavailability following intestinal delivery of orlistat was calculated from:
Where AUC0-8h intestinally administered and IV administered are the area under the plasma concentration time curves from time 0 to 8 h after intestinal and IV administration, respectively. Plasma AUCs were calculated using the linear trapezoidal method.

[2] = cited from earlier work
[3] = Lymph and plasma pharmacokinetics of orlistat in acute pancreatitis rats; assay type: in vivo, rat; conditions: AP rats relative to healthy animals
Source text: FIG. 4 illustrates lymph and plasma pharmacokinetics of orlistat in lymph diverted or lymph intact sham or acute pancreatitis (AP) rats intestinally administered a blank long chain fatty acid (LC-FA), orlistat LC-FA (LC-FA+O), or orlistat lipid free formulation (LFF+O). Dose-normalised lymph concentration of total orlistat (open and closed ring forms) over time (Panel A), cumulative lymphatic transport of total orlistat (open and closed ring forms) over time (Panel B), gut-lymph concentrations of triglyceride (TG) (Panel C), cumulative TG mass transport in gut-lymph (Panel D), dose-normalised plasma concentrations of total orlistat (open and closed ring forms) (Panel E), and lymph to plasma concentration ratios of orlistat (Panel F) over time. […]
In the previous study it was determined in healthy rats that orlistat administration in a long chain fatty acid (LC-FA) formulation promotes lymphatic drug transport when compared to administration in a lipid free formulation (LFF). […] Blood pressure and heart rate were also determined. […]
After initiation of dosing of the formulations, lymph was collected continuously for the duration of the experiment (i.e. up to 4 h post initiation of formulation dosing) into pre-weighed 1.5 ml tubes that were kept in an ice bath. Lymph collection tubes were changed every hour and lymph flow was determined gravimetrically. […]

[4] = healthy volunteers, oral, standard capsule formulations

CCCCCCCCCCC[C@@H](C[C@@H]1OC(=O)[C@H]1CCCCCC)OC(=O)[C@H](CC(C)C)NC=O [orlistat]
Plasma concentration of closed ring form of orlistat [1]: < 50 ng/mL
Dose recovered in the faeces [2, 4]: more than 97%
Dose recovered in the faeces in a non-metabolised form [2, 4]: 83.1%
Absorption and bioavailability of orlistat ([2]; oral administration in standard formulations, fed or fasted state): < 1 % dose
Gut-lymph uptake of orlistat in animals with AP [3]: attenuated relative to healthy animals
